Numbering of substitutions follows the chain as printed. Where two headings read alike, the source gives them in different places.
Tests used:
[1] = biological target: T1, human manganese superoxide dismutase (hMn SOD) variant Q143N (Gln 143 replaced by Asn), SEQ ID NO:3 (Homo sapiens, UniProt P04179, Q167N); experiment: Decay of superoxide catalyzed by Q143N hMnSOD, pulse radiolysis; format: biochemical; settings: FIG. 1; first-order fit, 35 μM enzyme, pH 9.6, 20° C.
T1 construct: as a mature protein tagged with an extra Met at the amino terminus; made in house; host or cells: E. coli QC774 (SodA/SodB mutant), pTrc99A
T1 sequence (P04179 25-222 Q167N): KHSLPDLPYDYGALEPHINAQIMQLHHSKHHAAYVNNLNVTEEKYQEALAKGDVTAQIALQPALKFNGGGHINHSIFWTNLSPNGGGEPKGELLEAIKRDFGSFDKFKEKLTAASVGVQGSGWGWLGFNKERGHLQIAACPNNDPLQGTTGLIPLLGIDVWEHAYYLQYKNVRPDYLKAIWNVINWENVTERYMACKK
Experimental: The solutions contained 0.5 μM wild-type MnSOD or 35 μM Q143N hMnSOD and 50 μM EDTA, 10 mM sodium formate, and 2.0 mM sodium pyrophosphate and pH 9.6 and 20° C. The solid line for Q143N hMnSOD is least-squares fit to a first-order process corresponding to Kcat /Km =1×10^6 M^-1 s^-1.
Experiments were carried out at the Center for Fast Kinetics Research at the University of Texas at Austin using a 4-Mev van der Graaff accelerator. A single high-dose electron pulse was used to generate superoxide radical anions from oxygen in acqueous solutions containing 10 mM sodium formate as hydroxyl radical scavenger (Schwartz, 1981) and 50 μM EDTA in addition to buffer and enzyme. All pulse radiolysis experiments were carried out at 20 ° C. The dismutation of O2^- was followed spectrophotometrically from its absorbance at 250 nm (ε=2000M^1 cm^1, Rabani and Nielson, 1969) with a path length of 2.5 cm. Progress curves for each set of 6 to 9 experiments were averaged. Exposure to ultraviolet radiation was minimized by opening a mechanical shutter a fraction of a second before each pulse.

[2] = biological target: T2, human manganese superoxide dismutase (hMn SOD) variant H30A (His 30 replaced by Ala) (Homo sapiens, UniProt P04179, H54A); experiment: Disproportionation of superoxide by H30A hMnSOD, stopped-flow, 20° C.; format: biochemical; settings: pH 9.6, 20° C.
T2 construct: as a mature protein tagged with an extra Met at the amino terminus; made in house
T2 sequence (P04179 25-222 H54A): T1 sequence (P04179 25-222 Q167N) with H30A, N143Q
Experimental: Experiments were based on the stabilization of KO2 in aprotic solvent and the subsequent large dilution of this solution by an aqueous solution of enzyme in a stopped-flow apparatus, as described by McClune and Fee (1978). KO2 was dissolved in a mixture of dimethyl sulfoxide and […] (2:1 by volume; Aldrich, spectrophotometric grade) with solubility of KO2 enhanced with 18-crown-6 (Valentine and Curtis, 1975). The stopped-flow spectrophotometer (Kinetic Instruments, Ann Arbor, Mich.) was capable of efficient mixing of this solution with an acqueous solution of enzyme in buffer with a dead time between 1.5 and 2.0 ms. One drive syringe (capacity 50 μl) contained the aprotic solution of O2. This was diluted fifty-fold by the contents of a second syringe (capacity 2.5 ml) which contained enzyme, EDTA, and buffer. The decay of superoxide in initial velocity experiments and progress curves was monitored by its absorption at 250 to 300 nm. Stopped-flow experiments were carried out at […]. Four or more kinetic traces were averaged to reduce noise. Steady-state parameters were obtained by least-squares analysis of such data (Leatherbarrow (1987) "Enzfitter: a nonlinear regression data analysis program for the IBM PC" Elsevier BIOSOFT, Cambridge).
In the present study, several novel hMnSOD proteins containing substitutions of His 30 (referring to the amino acid sequence of SEQ ID NO:2) were prepared by PCR site directed mutagenesis and purified by column chromatography, as described in the Materials and Methods section above, and as also described by Hsu et al. (1996) J. Biol. Chem. 271: 1768; and Hsieh et al. (1998) Biochemistry 37: 4731. In particular, His 30 was substituted with each of Ala, Asn, Ser and Gln. The resulting novel hMnSOD proteins containing a His 30 substitution were then assayed for enzymatic activity and product inhibition at 20° C. by measuring the absorbance of superoxide at 250 nm using stopped-flow spectrophotometry, as described above in the Materials and Methods section. […]

[3] = biological target: T3, human manganese superoxide dismutase (hMn SOD), wild type, SEQ ID NO:2 (Homo sapiens, UniProt P04179); settings: cited from earlier work
T3 construct: where it is then cleaved off leaving the mature protein
T3 sequence (P04179 25-222): T1 sequence (P04179 25-222 Q167N) with N143Q

[4] = Table 1, pulse radiolysis, 20° C., pH 9.6 (Hsu et al., 1996)
[5] = Table 2, KINSIM fit of FIG. 8 scheme to pulse radiolysis data, 20° C., pH 9.6
[6] = Table 3, KINSIM fit to pulse radiolysis data, 20° C., pH 9.6

[O]O [superoxide]
kcat /Km [1]: 1e+06 M⁻¹ s⁻¹ | kcat ([2]; Table 4): 1.9 ms^.1 | kcat /Km ([2]; Table 4): 20 μM^.1 S^.1 | ko /[E] (rate constant for the zero-order region of catalysis) ([2]; Table 5): 610 S^.1 | kcat [3, 4]: 40 ms^-1 | kcat /km [3, 4]: 8e+08 M⁻¹ s⁻¹ | k1 [3, 5]: 2e+09 M⁻¹ s⁻¹ | k3 [3, 5]: 2e+09 M⁻¹ s⁻¹ | k4 [3, 5]: 80000 s⁻¹ | k-1 [3, 5]: 20000 s⁻¹ | k-3 [3, 5]: 20000 s⁻¹ | k-4 [3, 5]: 300 M⁻¹ s⁻¹ | k-5 ([3]; Table 2, KINSIM fit, dead-end complex, 20° C., pH 9.6): 130 s⁻¹ | k5 ([3]; Table 2, KINSIM fit, formation of dead-end complex, 20° C., pH 9.6): 20000 s⁻¹ | k1 [3, 6]: 20000 s⁻¹ | k3 [3, 6]: 20000 s⁻¹ | k4 [3, 6]: 300 M⁻¹ s⁻¹ | k5 [3, 6]: 130 s⁻¹ | k-1 [3, 6]: 2e+09 M⁻¹ s⁻¹ | k-3 [3, 6]: 2e+09 M⁻¹ s⁻¹ | k-4 [3, 6]: 80000 s⁻¹ | k-5 [3, 6]: 2 × 10^4 | k2 ([3]; Tables 2 and 3, KINSIM fit of FIG. 8 scheme to pulse radiolysis data, 20° C., pH 9.6): 80000 s⁻¹ | kcat /km (diffusion controlled) ([3]; approximate value): ~10^9 M^-1 s^-1 | kcat /Km ([3]; pH 9.6, 20° C. (Hsu et al., 1996)): 8e+08 M⁻¹ s⁻¹
